From PubChem BioAssay AID1198 (NMMLSC, 2008)
Activity calls are given as the source filed them.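 The calls were made as follows: active = EC50 under 10 microM for raising side scatter, a sign of cell differentiation; inactive = the rest, including fits that never converged.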

Columns and labels:
[1] = activators of LNCaP prostate cell differentiation, dose response, flow cytometry, side scatter granularity (AID 1198); details: LNCaP side scatter shift, flow cytometry, 4 days; at 30 µM (top of the series)
[2] = system: LNCaP side scatter shift, flow cytometry, 4 days; test: as above

COc1ccc(N2CCN(CCCNC(=O)CCCn3c(=O)[nH]c4ccsc4c3=O)CC2)cc1
side scatter activation [1]: 1.98% (inactive)

COc1ccc(-c2cc(C(F)(F)F)nc(N3CCN(Cc4ccccc4)CC3)n2)cc1OC
side scatter activation [1]: 44.4% (inactive)

CCN(CC)CCCNC(=O)c1cc2c(-c3ccc(Cl)cc3)nn(C)c2s1
side scatter activation [1]: 84.3% (inactive)

Cc1ccccc1-c1nc(CN2CCCC(C(=O)NCCCN3CCOCC3)C2)c(C)o1 (stereo not drawn)
EC50 [2]: 7.03 µM

O=C(CCN1C(=O)COc2ccccc21)NCCCN1CCN(c2ccc(F)cc2)CC1
side scatter activation [1]: 40.2% (inactive)

CCOC(=O)c1c(C)[nH]c(C(=O)COC(=O)C2CC2C)c1C (stereo not drawn)
side scatter activation [1]: 73% (inactive)

CCN1CCCC1CNC(=O)C1CCN(Cc2nc(-c3cccc(Br)c3)oc2C)CC1 (stereo not drawn)
EC50 [2]: 1.12 µM

Cc1ccc(C)c(N2CCN(CCCNC(=O)Cn3cc4c(n3)CCCCC4)CC2)c1
side scatter activation [1]: 0% (inactive)

COc1cc2nc(N3CCN(C(=O)C4COc5ccccc5O4)CC3)nc(N)c2cc1OC (stereo not drawn)
EC50 [2]: 3.95 µM

CCCOc1ccccc1C1CC(=O)Nc2cc3c(cc21)OCO3 (stereo not drawn)
side scatter activation [1]: 0% (inactive)

CCN1CCCC1CNC(=O)c1cc2c(-c3ccc(Cl)cc3)nn(C)c2s1 (stereo not drawn)
side scatter activation [1]: 84.3% (inactive)

Cc1ccccc1-c1nc(CN2CCC(C(=O)NCCCN3CC(C)CC(C)C3)CC2)c(C)o1 (stereo not drawn)
side scatter activation [1]: 31.1% (inactive)

O=C(c1ccccc1)c1ccc(N2CCNCC2)cc1
side scatter activation [1]: 73% (inactive)

COc1ccccc1N1CCN(c2nc3ccccc3nc2C(C#N)C(=O)OC(C)C)CC1 (stereo not drawn)
side scatter activation [1]: 44.4% (inactive)

Cc1oc(-c2ccc(Cl)cc2)nc1CN1CCC(C(=O)NCCCN2CCOCC2)CC1
EC50 [2]: 3 µM

Cn1c(=O)[nH]c(=O)c2c1nc(Br)n2CCCSc1nc2ccccc2o1
side scatter activation [1]: 1.98% (inactive)

O=C(Cn1cc2c(n1)CCCC2)NCCCN1CCN(c2ccccc2F)CC1
side scatter activation [1]: 31.1% (inactive)

COc1ccccc1N1CCN(Cc2cc(Br)c(O)c3ncccc23)CC1
side scatter activation [1]: 1.98% (inactive)

CN1CCN(c2cc3c(c4c2[nH]c2ccccc24)C(=O)CC(C)(C)C3)CC1
EC50 [2]: 3.65 µM

Cc1nc2ncnn2c(C)c1CCC(=O)NCCCN1CCN(c2cccc(Cl)c2)CC1
side scatter activation [1]: 84.3% (inactive)

Cn1c(=O)cc(OCC(=O)NCCCN2CCN(c3ccccc3F)CC2)c2ccccc21
side scatter activation [1]: 73% (inactive)

COc1ccc(CCN2CCC(Nc3nc4ccccc4n3Cc3ccc(F)cc3)CC2)cc1
side scatter activation [1]: 40.2% (inactive)

Cn1c(C(=O)NCCCN2CCN(c3cccc(Cl)c3)CC2)cc2c(=O)n(C)c3ccccc3c21
EC50 [2]: 0.87 µM

COc1ccc(-c2noc(-c3cc(Cl)ccc3Cl)n2)cc1OC
EC50 [2]: 5.7 µM

Cc1ccc(CNc2nc3ccccc3n3nnnc23)cc1
side scatter activation [1]: 40.2% (inactive)

Cc1noc(/C=C/c2ccco2)c1S(=O)(=O)N1CCC(C(=O)N2CCc3ccccc3C2)CC1
EC50 [2]: 5.2 µM

CCCc1cc(-c2n[nH]c(C)c2-c2ccc(C(=O)OCC)o2)c(O)cc1O
side scatter activation [1]: 1.98% (inactive)

COc1ccccc1NC(=O)c1nc[nH]c1C(=O)Nc1ccccc1OC
EC50 [2]: 9.52 µM

Cc1ccc(Cl)cc1N1CCN(C(=O)c2cc3c(=O)n(C)c4ccccc4c3n2C)CC1
side scatter activation [1]: 0% (inactive)

Cc1ccccc1-c1nc(CN2CCC(C(=O)NCCCN3CCCC3)CC2)c(C)o1
side scatter activation [1]: 1.98% (inactive)

COc1ccc(-c2oc3ncn(CCN4CCOCC4)c(=N)c3c2-c2ccc(OC)cc2)cc1
side scatter activation [1]: 44.4% (inactive)

CN1CCN(CCCNC(=O)c2cc3c(-c4ccc(Cl)cc4)nn(C)c3s2)CC1
EC50 [2]: 6.41 µM

Cc1cc(C)nc(N2CCC(C(=O)Nc3ccc(Oc4ccccc4)cc3)CC2)n1
side scatter activation [1]: 40.2% (inactive)

CCc1ccc(-c2nc(CN3CCC(C(=O)NCc4ccc(F)cc4)CC3)c(C)o2)cc1
side scatter activation [1]: 0% (inactive)

Cc1ccc(OCC(O)Cn2c(=N)n(CCN3CCCCC3)c3ccccc32)cc1 (stereo not drawn)
EC50 [2]: 4.11 µM

Cn1nc(-c2ccc(Cl)cc2)c2cc(C(=O)NCCCN3CCCC3)sc21
side scatter activation [1]: 84.3% (inactive)

Cc1oc(-c2ccc(Cl)cc2)nc1CN1CCC(C(=O)N2CCN(Cc3ccccc3)CC2)CC1
side scatter activation [1]: 31.1% (inactive)

CN(C)CCCN1c2ccccc2CCc2ccc(Cl)cc21
side scatter activation [1]: 73% (inactive)

CCOc1ccccc1NC(=O)c1nc[nH]c1C(=O)Nc1ccccc1OCC
EC50 [2]: 6.66 µM

O=C(NCCCN1CCN(c2cccc(Cl)c2)CC1)c1cccc(N2CCCC2=O)c1
side scatter activation [1]: 38.5% (inactive)

CCOc1cccc2cc(-c3cn4cc(C)ccc4n3)c(=O)oc12
EC50 [2]: 20.6 µM (inactive)

CCN1CCN(CCNC(=O)C2CCN(Cc3nc(-c4ccc(Cl)cc4)oc3C)CC2)CC1
EC50 [2]: 16.6 µM (inactive)

COc1ccc(-c2noc(CCC(=O)NCCCN3CCC(Cc4ccccc4)CC3)n2)cc1
side scatter activation [1]: 1.98% (inactive)

COc1ccc(Cc2nc(-c3ccc(-n4cccc4)cc3)no2)cc1OC
side scatter activation [1]: 1.98% (inactive)

COc1ccc(N2CCN(CCCNC(=O)c3cc4sccc4n3C)CC2)cc1
side scatter activation [1]: 40.2% (inactive)

CCOC(=O)c1ccccc1NC(=O)Cn1c(-c2nonc2N)nc2ccccc21
side scatter activation [1]: 44.4% (inactive)

CCN(CC)CCNC(=O)c1cc2c(-c3ccc(Cl)cc3)nn(C)c2s1
side scatter activation [1]: 31.1% (inactive)

CCN(CCNC(=O)C1CCN(Cc2nc(-c3ccc(Cl)cc3)oc2C)CC1)c1ccccc1
EC50 [2]: 2 µM

Cc1ccc2c(c1)-c1c(cnn1CC(=O)Nc1ccccc1N1CCN(C)CC1)CO2
EC50 [2]: 8.06 µM

COc1ccc(Nc2nc(N)nc(CN3CCC(Cc4ccccc4)CC3)n2)cc1
side scatter activation [1]: 73% (inactive)

Cc1cc2c(=O)n(CC(=O)N3CCN(c4ccccc4)CC3)cnc2s1
side scatter activation [1]: 84.3% (inactive)

COc1ccc2cc3cc(C(=O)Nc4ccccc4N4CCN(C)CC4)oc3nc2c1
side scatter activation [1]: 44.4% (inactive)

Cn1nc(-c2ccc(Cl)cc2)c2cc(C(=O)NCCCN3CCOCC3)sc21
EC50 [2]: 5.53 µM

CCN(CCNC(=O)C1CCN(Cc2nc(-c3cccc(Cl)c3)oc2C)CC1)c1ccccc1
side scatter activation [1]: 0% (inactive)

COc1ccc(CCn2c(=N)c(C(=O)NCc3ccco3)cc3c(=O)n4ccccc4nc32)cc1
EC50 [2]: 7.49 µM

CCn1c(=O)cc(SCC(=O)NCCCN2CCN(c3ccccc3F)CC2)c2ccccc21
EC50 [2]: 8.92 µM

CCn1c(=N)n(CC(O)COc2cccc(C)c2)c2ccccc21 (stereo not drawn)
side scatter activation [1]: 0% (inactive)

CCOc1ccc(NC(=O)COc2nsnc2N2CCCCC2)cc1
side scatter activation [1]: 0% (inactive)

Cc1cc(N2CCN(C)CC2)nc2ccc(NC(=O)c3ccc4c(c3)OCO4)cc12
EC50 [2]: 10.4 µM (inactive)

Cc1ccccc1-c1nc(CN2CCC(C(=O)NCc3cccnc3)CC2)c(C)o1
side scatter activation [1]: 38.5% (inactive)

CCCS(=O)(=O)N1CCCC(C(=O)NCCCN2CCN(c3ccc(F)cc3)CC2)C1 (stereo not drawn)
side scatter activation [1]: 1.98% (inactive)

COc1ccc(N2CCN(CCCNC(=O)CC3Oc4ccc(C)cc4NC3=O)CC2)cc1 (stereo not drawn)
EC50 [2]: 27 µM (inactive)

Cc1ccccc1-c1nc(CN2CCC(C(=O)NCCCN3CCOCC3)CC2)c(C)o1
EC50 [2]: 6.69 µM

CC(C)(C)c1ccc(C(O)CCCN2CCC(C(O)(c3ccccc3)c3ccccc3)CC2)cc1 (stereo not drawn)
side scatter activation [1]: 0% (inactive)

CCOc1ccc(-c2cc(C(=O)NCCCN3CCN(CC)CC3)c3ccccc3n2)cc1
EC50 [2]: 6.41 µM

O=S1(=O)C=C(Sc2nc3ccccc3s2)c2ccccc21
side scatter activation [1]: 0% (inactive)

C[C@H]1CCC/C=C/C2C[C@H](O)CC2[C@H](O)/C=C/C(=O)O1 (stereo partly drawn)
side scatter activation [1]: 0% (inactive)

CCCN(CCC)CCNC(=O)C1CCN(Cc2nc(-c3ccc(Cl)cc3)oc2C)CC1
EC50 [2]: 0.768 µM

CC1CCCCN1CCNC(=O)c1ccc2c(=O)n(CCc3ccccc3)c(=O)[nH]c2c1 (stereo not drawn)
EC50 [2]: 6.5 µM

Cc1cccc(-c2nsc(SCC(=O)Nc3nccs3)n2)c1
EC50 [2]: 12 µM (inactive)

CCN(CC)CC(=O)Nc1ccc(-c2nc3cc(NC(=O)CN(CC)CC)ccc3o2)cc1
EC50 [2]: 0.83 µM

Cc1cc(N2CCN(C)CC2)nc2ccc(NC(=O)c3ccc(Br)o3)cc12
EC50 [2]: 2.79 µM

CCOC(=O)c1[nH]c(C)c(C(=O)N2CCc3ccccc32)c1C
side scatter activation [1]: 1.98% (inactive)

CC(C)N1CCC2(CC1)N=C(c1ccc3c(c1)OCO3)CC(c1cc(Cl)ccc1O)N2 (stereo not drawn)
side scatter activation [1]: 1.98% (inactive)

Cn1c(=O)cc(SCC(=O)NCCCN2CCN(c3ccccc3F)CC2)c2ccccc21
side scatter activation [1]: 31.1% (inactive)

Cc1ccc(Nc2cc(=O)n(C3CCCCC3)c(=O)[nH]2)cc1C
side scatter activation [1]: 0% (inactive)

CCN(CC)CCNC(=O)c1ccc(N2CCCCC2)c(NS(=O)(=O)c2ccc(C)cc2)c1
side scatter activation [1]: 44.4% (inactive)

CCn1c(=O)cc(SCC(=O)NCCN2CCN(Cc3ccccc3)CC2)c2ccccc21
side scatter activation [1]: 73% (inactive)

CCN1CCN(C(c2cccs2)C(C)NS(=O)(=O)c2ccc(Br)cc2)CC1 (stereo not drawn)
EC50 [2]: 15.2 µM (inactive)

Oc1c(CN2CCCCC2)cc(COCc2ccccc2)c2cccnc12
EC50 [2]: 3.81 µM

CCN1CCN(c2cc(C)c3cc(NC(=O)c4ccc(Br)o4)ccc3n2)CC1
side scatter activation [1]: 73% (inactive)

COC(=O)c1cc(-c2ccccc2)sc1NC(=O)c1cc(C)on1
EC50 [2]: 1.87 µM

O=c1cc(-c2ccccc2)[nH]c2ccccc12
side scatter activation [1]: 1.98% (inactive)

CN(CC(O)COc1ccc(OCC(O)CN(C)C2CCCCC2)cc1)C1CCCCC1 (stereo not drawn)
EC50 [2]: 4.32 µM

CCN1CCN(c2ncc(C(=O)Nc3cc(Cl)c(OC)cc3OC)c3ccccc23)CC1
EC50 [2]: 5.59 µM

N=c1n(CCN2CCCCC2)c2ccccc2n1CC(O)COc1ccccc1 (stereo not drawn)
EC50 [2]: 0.994 µM

Cc1ccccc1CS(=O)(=O)CCC(=O)NCCCN1CCN(c2ccccc2F)CC1
side scatter activation [1]: 31.1% (inactive)

CCOC(=O)c1c(C)n(C)c2ccc(OCC(O)CNC(CC)CO)cc12 (stereo not drawn)
side scatter activation [1]: 38.5% (inactive)

O=C(NCCCN1CCN(c2ccc(F)cc2)CC1)c1cccc(N2CCCC2=O)c1
side scatter activation [1]: 73% (inactive)

CN(CCNC(=O)C1CC(=O)N(c2ccc(F)c(Cl)c2)C1)Cc1ccccc1 (stereo not drawn)
side scatter activation [1]: 44.4% (inactive)

CC1CCCCN1CCNC(=O)c1cc2c(-c3ccccc3F)nn(C)c2s1 (stereo not drawn)
side scatter activation [1]: 84.3% (inactive)

Nc1ccc(-n2ccnc2)cc1
side scatter activation [1]: 84.3% (inactive)

Clc1ccc(COC(Cn2ccnc2)c2ccc(Cl)cc2Cl)cc1 (stereo not drawn)
side scatter activation [1]: 0% (inactive)
